From ChEMBL document CHEMBL3867421, “The action mechanism of daptomycin” (Bioorg Med Chem, 2016)
≈ marks a conversion by molar mass, not a printed value.

Columns and labels:
Bacillus subtilis [1] = test: Antibacterial activity against Bacillus subtilis PY79 after 18 hrs by two-fold serial dilution method relative to daptomycin; format: functional
Staphylococcus aureus [2] = test: Antibacterial activity against Staphylococcus aureus relative to daptomycin; format: functional
Bacillus subtilis [3] = test: Antibacterial activity against Bacillus subtilis relative to daptomycin; format: functional
Bacillus spizizenii = test: Antibacterial activity against Bacillus subtilis ATCC 6633 incubated overnight by broth dilution method; format: functional
Bacillus subtilis [4] = test: Antibacterial activity against Bacillus subtilis ATCC 1046 incubated overnight by broth dilution method; format: functional
Enterococcus faecium = test: Antibacterial activity against Enterococcus faecium 14 by broth microdilution assay relative to daptomycin; format: functional
Staphylococcus aureus [5] = test: Antibacterial activity against Staphylococcus aureus 42 by broth microdilution assay relative to daptomycin; format: functional
Enterococcus faecalis = test: Antibacterial activity against Enterococcus faecalis 201 by broth microdilution assay relative to daptomycin; format: functional
[6] = Membrane permeabilization activity in DOPC/DOPG large unilamellar liposomes assessed as leakage of calcein at 16 ug/ml; format: ADME
[7] = Membrane permeabilization activity in DOPC/DOPG large unilamellar liposomes assessed as leakage of calcein at 30 ug/ml preincubated with CaCl2 for 1 hr prior to testing; format: ADME
[8] = Protein binding in human plasma by UV/HPLC analysis; format: ADME, cell-free; details: read-out: PPB (converted)
Staphylococcus aureus [9] = test: Antibacterial activity against vancomycin sensitive Staphylococcus aureus JKD6004 by microbroth dilution assay; format: functional
Staphylococcus aureus [10] = test: Antibacterial activity against Staphylococcus aureus JKD6004 harboring WalR K208R mutant by microbroth dilution assay; format: functional

**Q.** Which “fold change (FC)” value (Bacillus subtilis [1]) does the source give for `CCCCCCCCCC(=O)N[C@@H](Cc1c[nH]c2ccccc12)C(=O)N[C@@H](CC(N)=O)C(=O)N[C@@H](CC(=O)O)C(=O)N[C@@H]1C(=O)NCC(=O)N[C@@H](CCCN)C(=O)N[C@@H](CC(=O)O)C(=O)N[C@H](C)C(=O)N[C@@H](CC(=O)O)C(=O)NCC(=O)N[C@H](CO)C(=O)N[C@@H](CCC(=O)O)C(=O)N[C@@H](Cc2c[nH]c3ccccc23)C(=O)O[C@@H]1C` here?
**A.** 33

**Q.** With `CCCCCCCCCC(=O)N[C@@H](Cc1c[nH]c2ccccc12)C(=O)N[C@H](CC(N)=O)C(=O)N[C@@H](CC(=O)O)C(=O)N[C@H]1CNC(=O)[C@H](Cc2c[nH]c3ccccc23)NC(=O)[C@H](CCC(=O)O)NC(=O)[C@@H](CO)NC(=O)CNC(=O)[C@H](CC(=O)O)NC(=O)[C@@H](C)NC(=O)[C@H](CC(=O)O)NC(=O)[C@H](CCCN)NC(=O)CNC1=O` as the compound, how does the “fold change (FC)” value (Staphylococcus aureus [2]) read?
**A.** 100

**Q.** For `CCCCCCCCCC(=O)N[C@@H](Cc1c[nH]c2ccccc12)C(=O)N[C@H](CC(N)=O)C(=O)N[C@@H](CC(=O)O)C(=O)N[C@@H]1C(=O)NCC(=O)N[C@@H](CCCN)C(=O)N[C@@H](CC(=O)O)C(=O)N[C@H](CC(N)=O)C(=O)N[C@@H](CC(=O)O)C(=O)NCC(=O)N[C@H](CO)C(=O)N[C@@H]([C@H](C)CC(=O)O)C(=O)N[C@@H](CC(=O)c2ccccc2N)C(=O)O[C@@H]1C`, which “fold change (FC)” value (Bacillus subtilis [3]) is on record?
**A.** 16

**Q.** For `CCCCCCCCCC(=O)N[C@@H](Cc1c[nH]c2ccccc12)C(=O)N[C@H](CC(N)=O)C(=O)N[C@@H](CC(=O)O)C(=O)N[C@@H]1C(=O)NCC(=O)N[C@@H](CCCN)C(=O)N[C@@H](CC(=O)O)C(=O)N[C@H](CC(N)=O)C(=O)N[C@@H](CC(=O)O)C(=O)NCC(=O)N[C@H](CO)C(=O)N[C@@H](CCC(=O)O)C(=O)N[C@@H](CC(=O)c2ccccc2N)C(=O)O[C@@H]1C`, which “fold change (FC)” value (Bacillus subtilis [3]) is on record?
**A.** 256

**Q.** With `CCCCCCCCCC(=O)N[C@@H](Cc1c[nH]c2ccccc12)C(=O)N[C@H](CC(N)=O)C(=O)N[C@@H](CC(=O)O)C(=O)N[C@@H]1C(=O)NCC(=O)N[C@@H](CCCN)C(=O)N[C@@H](CC(=O)O)C(=O)N[C@H](C)C(=O)N[C@@H](CC(=O)O)C(=O)NCC(=O)N[C@H](CC(N)=O)C(=O)N[C@@H](CCC(=O)O)C(=O)N[C@@H](CC(=O)c2ccccc2N)C(=O)O[C@@H]1C` as the compound, how does the “fold change (FC)” value (Bacillus subtilis [3]) read?
**A.** 64

**Q.** With `CCCCCCCCCC(=O)N[C@@H](Cc1c[nH]c2ccccc12)C(=O)N[C@@H](CC(N)=O)C(=O)N[C@@H](CC(=O)O)C(=O)N[C@@H]1C(=O)NCC(=O)N[C@@H](CCCN)C(=O)N[C@@H](CC(=O)O)C(=O)N[C@H](C)C(=O)N[C@@H](CC(=O)O)C(=O)NCC(=O)N[C@H](CO)C(=O)N[C@@H](CCC(N)=O)C(=O)N[C@@H](CC(=O)c2ccccc2N)C(=O)O[C@@H]1C` as the compound, how does the “fold change (FC)” value (Bacillus subtilis [1]) read?
**A.** 10

**Q.** Which “fold change (FC)” value (Bacillus subtilis [3]) does the source give for `CCCCCCCCCC(=O)N[C@@H](Cc1c[nH]c2ccccc12)C(=O)N[C@H](CC(N)=O)C(=O)N[C@@H](CC(=O)O)C(=O)N[C@@H]1C(=O)NCC(=O)N[C@@H](CCCN)C(=O)N[C@@H](CC(=O)O)C(=O)N[C@H](CC(N)=O)C(=O)N[C@@H](CC(=O)O)C(=O)NCC(=O)N[C@H](CO)C(=O)N[C@@H]([C@H](C)CC(=O)O)C(=O)N[C@@H]([C@@H](C)CC)C(=O)O[C@@H]1C` here?
**A.** 32

**Q.** For `CCCCCCCCCC(=O)N[C@@H](Cc1c[nH]c2ccccc12)C(=O)N[C@H](CC(N)=O)C(=O)N[C@@H](CC(=O)O)C(=O)N[C@H]1CNC(=O)[C@H](CC(=O)c2ccccc2N)NC(=O)[C@H](CCC(=O)O)NC(=O)[C@@H](CO)NC(=O)CNC(=O)[C@H](CC(=O)O)NC(=O)[C@@H](C)NC(=O)[C@H](CC(=O)O)NC(=O)[C@H](CCCN)NC(=O)CNC1=O`, which “fold change (FC)” value (Staphylococcus aureus [2]) is on record?
**A.** 200

**Q.** With `CCCCCCCCCC(=O)N[C@@H](Cc1c[nH]c2ccccc12)C(=O)N[C@@H](CC(N)=O)C(=O)N[C@@H](CC(N)=O)C(=O)N[C@@H]1C(=O)NCC(=O)N[C@@H](CCCN)C(=O)N[C@@H](CC(=O)O)C(=O)N[C@H](C)C(=O)N[C@@H](CC(=O)O)C(=O)NCC(=O)N[C@H](CO)C(=O)N[C@@H](CCC(=O)O)C(=O)N[C@@H](CC(=O)c2ccccc2N)C(=O)O[C@@H]1C` as the compound, how does the “fold change (FC)” value (Bacillus subtilis [1]) read?
**A.** 27

**Q.** Which MIC (Bacillus spizizenii) does the source give for `CCCCCCCCCC(=O)N[C@@H](Cc1c[nH]c2ccccc12)C(=O)N[C@H](CC(N)=O)C(=O)N[C@@H](CC(=O)O)C(=O)N[C@@H]1C(=O)NCC(=O)N[C@@H](CCCNC(=O)Cc2c(C)c3cc(S(=O)(=O)O)c(N)cc3oc2=O)C(=O)N[C@@H](CC(=O)O)C(=O)N[C@H](C)C(=O)N[C@@H](CC(=O)O)C(=O)NCC(=O)N[C@H](CO)C(=O)N[C@@H]([C@@H](C)CC(=O)O)C(=O)N[C@@H](CC(=O)c2ccccc2N)C(=O)O[C@@H]1C` here?
**A.** 12 µg/mL (≈ 6.26 µM)

**Q.** Which “fold change (FC)” value (Bacillus subtilis [1]) does the source give for `CCCCCCCCCC(=O)N[C@@H](Cc1c[nH]c2ccccc12)C(=O)N[C@H](CC(N)=O)C(=O)N[C@@H](CC(=O)O)C(=O)N[C@@H]1C(=O)NCC(=O)N[C@@H](CCCN)C(=O)N[C@@H](CC(=O)O)C(=O)N[C@H](C)C(=O)N[C@@H](CC(=O)O)C(=O)NCC(=O)N[C@H](CO)C(=O)N[C@@H]([C@H](C)CC(=O)O)C(=O)N[C@@H](Cc2ccc(O)cc2)C(=O)O[C@@H]1C` here?
**A.** 47

**Q.** For `CCCCCCCCCC(=O)N[C@@H](Cc1c[nH]c2ccccc12)C(=O)N[C@H](CC(N)=O)C(=O)N[C@@H](CC(=O)O)C(=O)N[C@@H]1C(=O)NCC(=O)N[C@@H](CCCN)C(=O)N[C@@H](CC(=O)O)C(=O)N[C@H](C)C(=O)N[C@@H](CC(=O)O)C(=O)NCC(=O)N[C@H](CC(N)=O)C(=O)N[C@@H]([C@H](C)CC(=O)O)C(=O)N[C@@H]([C@@H](C)CC)C(=O)O[C@@H]1C`, which “fold change (FC)” value (Bacillus subtilis [3]) is on record?
**A.** 8

**Q.** With `CCCCCCCCCC(=O)N[C@@H](Cc1c[nH]c2ccccc12)C(=O)N[C@H](CC(N)=O)C(=O)N[C@@H](CC(=O)O)C(=O)N[C@@H]1C(=O)NCC(=O)N[C@@H](CCCNC(=N)CCCSCCC(=O)c2ccc3cc(N(C)C)ccc3c2)C(=O)N[C@@H](CC(=O)O)C(=O)N[C@H](C)C(=O)N[C@@H](CC(=O)O)C(=O)NCC(=O)N[C@H](CO)C(=O)N[C@@H]([C@@H](C)CC(=O)O)C(=O)N[C@@H](CC(=O)c2ccccc2N)C(=O)O[C@@H]1C` as the compound, how does the MIC (Bacillus spizizenii) read?
**A.** 10 µg/mL (≈ 5.14 µM)

**Q.** For `CCCCCCCCCC(=O)N[C@@H](Cc1c[nH]c2ccccc12)C(=O)N[C@H](CC(N)=O)C(=O)N[C@@H](CC(=O)O)C(=O)N[C@@H]1C(=O)NCC(=O)N[C@@H](CCCNc2ccc([N+](=O)[O-])c3nonc23)C(=O)N[C@@H](CC(=O)O)C(=O)N[C@H](C)C(=O)N[C@@H](CC(=O)O)C(=O)NCC(=O)N[C@H](CO)C(=O)N[C@@H]([C@@H](C)CC(=O)O)C(=O)N[C@@H](CC(=O)c2ccccc2N)C(=O)O[C@@H]1C`, which MIC (Bacillus spizizenii) is on record?
**A.** 3 µg/mL (≈ 1.68 µM)

**Q.** With `CCCCCCCCCC(=O)N[C@@H](Cc1c[nH]c2ccccc12)C(=O)N[C@@H](CC(N)=O)C(=O)N[C@@H](CC(=O)O)C(=O)N[C@@H]1C(=O)NCC(=O)N[C@@H](CCCN)C(=O)N[C@@H](CC(=O)O)C(=O)N[C@H](C)C(=O)N[C@@H](CC(=O)O)C(=O)NCC(=O)N[C@H](CC(=O)O)C(=O)N[C@@H](CCC(=O)O)C(=O)N[C@@H](CC(=O)c2ccccc2N)C(=O)O[C@@H]1C` as the compound, how does the “fold change (FC)” value (Bacillus subtilis [1]) read?
**A.** >100

**Q.** For `CCCCCCCCCC(=O)N[C@@H](Cc1c[nH]c2ccccc12)C(=O)N[C@@H](CC(N)=O)C(=O)N[C@@H](CC(=O)O)C(=O)N[C@@H]1C(=O)NCC(=O)N[C@@H](CCCCN)C(=O)N[C@@H](CC(=O)O)C(=O)N[C@H](C)C(=O)N[C@@H](CC(=O)O)C(=O)NCC(=O)N[C@H](CO)C(=O)N[C@@H](CCC(=O)O)C(=O)N[C@@H](Cc2c[nH]c3ccccc23)C(=O)O[C@@H]1C`, which “fold change (FC)” value (Bacillus subtilis [1]) is on record?
**A.** 33

**Q.** With `C[C@H]1NC(=O)[C@H](CC(=O)O)NC(=O)[C@H](CCCN)NC(=O)CNC(=O)[C@@H](NC(=O)[C@H](CC(=O)O)NC(=O)[C@@H](CC(N)=O)NC(=O)[C@H](Cc2c[nH]c3ccccc23)NC(=O)CCCc2cc3cccc4c5cccc6cccc(c(c2)c34)c65)[C@@H](C)OC(=O)[C@H](CC(=O)c2ccccc2N)NC(=O)[C@H]([C@@H](C)CC(=O)O)NC(=O)[C@@H](CO)NC(=O)CNC(=O)[C@H](CC(=O)O)NC1=O` as the compound, how does the MIC (Bacillus subtilis [4]) read?
**A.** 3 µg/mL (≈ 1.68 µM)

**Q.** What does the source list for `CCCCCCCCCC(=O)N[C@@H](Cc1c[nH]c2ccccc12)C(=O)NC(CC(N)=O)C(=O)N[C@@H](CC(=O)O)C(=O)N[C@@H]1C(=O)NCC(=O)N[C@@H](CCCN)C(=O)N[C@@H](CC(=O)O)C(=O)N[C@H](C)C(=O)N[C@@H](CC(=O)O)C(=O)NCC(=O)N[C@H](CO)C(=O)N[C@@H]([C@H](C)CC(=O)O)C(=O)N[C@@H](CC(=O)c2ccccc2N)C(=O)O[C@@H]1C` (single isomer, unassigned)?
**A.** fold change (FC) (Enterococcus faecium): 10; fold change (FC) (Staphylococcus aureus [5]): 10; fold change (FC) (Enterococcus faecalis): 10

**Q.** Which Activity [6] does the source give for `CCCCCCCCCC(=O)N[C@@H](Cc1c[nH]c2ccccc12)C(=O)N[C@H](CC(N)=O)C(=O)N[C@@H](CC(=O)O)C(=O)N[C@@H]1C(=O)NCC(=O)N[C@@H](CCCN)C(=O)N[C@@H](CC(=O)O)C(=O)N[C@H](C)C(=O)N[C@@H](CC(=O)O)C(=O)NCC(=O)N[C@H](CO)C(=O)N[C@@H]([C@H](C)CC(=O)O)C(=O)N[C@@H](CC(=O)c2ccccc2N)C(=O)O[C@@H]1C` [DAPTOMYCIN] here?
**A.** < 10%

**Q.** And the Activity [7]?
**A.** 100%

**Q.** And the fraction unbound [8]?
**A.** 0.1

**Q.** For `CCCCCCCCCC(=O)N[C@@H](Cc1c[nH]c2ccccc12)C(=O)N[C@@H](CC(N)=O)C(=O)N[C@@H](CC(=O)O)C(=O)N[C@@H]1C(=O)NCC(=O)N[C@@H](CCCN)C(=O)N[C@@H](CC(=O)O)C(=O)N[C@H](C)C(=O)N[C@@H](CC(=O)O)C(=O)NCC(=O)N[C@H](CO)C(=O)N[C@@H]([C@H](C)CC(=O)O)C(=O)N[C@@H](CC(=O)c2ccccc2N)C(=O)O[C@@H]1C` [DAPTOMYCIN], which MIC (Staphylococcus aureus [9]) is on record?
**A.** 0.5 µg/mL (≈ 0.309 µM)

**Q.** What about the MIC (Staphylococcus aureus [10]) of the same compound?
**A.** 2 µg/mL (≈ 1.23 µM)
